Assay results from US8524911B2, “3-arylamino pyridine derivatives” (Merck Serono SA, priority 2004, dated 2013).
pIC50: −log10 of the molar value.

How the values were obtained:
[1] = system: Caco-2 cells; test: Caco-2 permeability assay; assay type: in vitro ADME; conditions: 10 μM, pH 7.4, 120 minutes; for Caco A-B: Papp apical to basolateral; for Caco B-A: Papp basolateral to apical
Description: Assay 4: Caco-2 Permeability Assay
Caco-2 cells obtained from the ATCC at passage number 27 are used. Cells (passage number 40-60) were seeded on to Millipore Multiscreen Caco-2 plates or Falcon HTS inserts at 1×10^5 cells/cm2. Cells were cultured for 20 days in DMEM and media was changed every two or three days. On day 20 the permeability study was performed.
Permeability was studied by applying compound to the apical surface of cell monolayers and measuring compound permeation into the basolateral compartment. The experiment was also performed in the reverse direction (B-A) to investigate active transport. Hanks Balanced Salt Solution (HBSS) pH 7.4 buffer with 25 mM HEPES and 10 mM glucose at 37° C. was used as the medium in permeability studies. Incubations were carried out in an atmosphere of 5% CO2 with a relative humidity of 95%.
The monolayers were prepared by rinsing both basolateral and apical surfaces twice with HBSS at 37° C. Cells were then incubated with HBSS in both apical and basolateral compartments for 40 minutes to stabilize physiological parameters.
HBSS was then removed from the apical compartment and replaced with test compound dosing solutions. The solutions were made by diluting 10 mM DMSO concentrates with HBSS to give a final test compound concentration of 10 μM (final DMSO concentration adjusted to 1%). The fluorescent integrity marker lucifer yellow was also included in the dosing solution. Analytical standards were made from dosing solutions. Test compound permeability was assessed in duplicate. On each plate compounds of known permeability characteristics were run as controls.
The apical compartment inserts were then placed into ‘companion’ plates containing fresh HBSS. For basolateral to apical (B-A) experiments the experiment was initiated by replacing buffer in the inserts then placing them in companion plates containing dosing solutions. At 120 minutes the companion plate was removed and apical and basolateral samples diluted for analysis by LC-MS/MS (the donor compartment was also sampled to permit determination of starting concentration after non-specific binding has occurred).
The integrity of the monolayers throughout the experiment is checked by monitoring lucifer yellow permeation using fluorimetric analysis. Lucifer yellow permeation was low if monolayers have not been damaged. Test and control compounds were quantified by LC-MS/MS cassette analysis using a 5-point calibration with appropriate dilution of the samples. Should lucifer yellow Papps were above QC limits in more than one well per test compound, the compound was re-tested.
The permeability coefficient for each compound (Papp) was calculated from the following equation: Papp=[dQ/dt]/[C0×A]
Whereby dQ/dt is the rate of permeation of the drug across the cells, C0 is the donor compartment concentration at time zero and A is the area of the cell monolayer. C0 is obtained from analysis of the donor compartment at the end of the incubation period.
Test compounds were grouped into low, medium or high absorption potential based on comparison with control compounds, which have known human absorption.
In addition, permeation was studied in both directions across the cells, and an asymmetry index was reported from mean A-B and B-A data. This was derived from: Papp(B-A)/Papp(A-B)
Wherein “+” means a caco A-B and caco B-A value of 1-10 and “++” means a caco A-B and caco B-A value of 11-100.

[2] = target: human MEK1 (Homo sapiens, UniProt Q02750); test: MEK-1 Enzyme Assay (LANCE-HTRF); assay type: biochemical; conditions: 100 nM MEK1, 15 μM ATP, 300 nM ERK2, two hours; read-out: MEK inhibition
human MEK1, sequence (Q02750 whole entry): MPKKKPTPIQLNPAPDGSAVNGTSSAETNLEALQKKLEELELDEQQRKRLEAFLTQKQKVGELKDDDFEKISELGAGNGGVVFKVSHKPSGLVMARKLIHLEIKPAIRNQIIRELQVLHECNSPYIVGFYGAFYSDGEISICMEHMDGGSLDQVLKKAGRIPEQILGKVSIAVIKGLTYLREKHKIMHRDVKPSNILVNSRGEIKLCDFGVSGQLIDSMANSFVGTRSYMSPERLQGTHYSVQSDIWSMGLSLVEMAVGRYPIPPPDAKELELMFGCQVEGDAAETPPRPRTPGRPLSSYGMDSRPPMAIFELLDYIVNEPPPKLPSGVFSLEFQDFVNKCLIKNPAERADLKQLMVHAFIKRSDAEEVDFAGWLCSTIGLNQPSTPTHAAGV
Outline: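 TR-FRET readout of MEK1-catalysed ERK1 phosphorylation; after a 2 h reaction, Eu-anti-PY20 (5 nM) and anti-GST-APC (50 nM) were added in buffer with 50 mM EDTA and 0.05% BSA, then incubated 1 h in the dark.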

[3] = Microsomal stability assay, HLM; assay type: in vitro ADME; conditions: pooled human liver microsomes, pH 7.4; 3 μM compound, 0.5 mg/ml human liver microsomes, 37° C., 2 mM NADPH; read-out: HLM t1/2
Description: (§1) Assay 3: Microsomal Stability Assay
(§2) Compounds were tested on their stability in human, rat and mouse liver microsomal preparations (HLM, RLM and MLM respectively). At a final concentration of 3 μM, compounds were incubated at 37° C. with 0.5 mg/ml human, rat or mouse liver microsomes in a buffer containing 50 mM phosphate, pH 7.4 and 2 mM NADPH. Pooled human liver microsomes or pooled male rat liver microsomes (Sprague Dawley) were obtained from NatuTec (Frankfurt, Germany). Incubations without NADPH served as negative controls. Reactions were stopped after 0, 15, 30, 45 or 60 min by the addition of acetonitrile and microsomes were pelleted by centrifugation (10 min at 6200×g). Supernatants were analyzed by HPLC regarding the concentration of mother compound. Finally, the half life of compounds in the regarding microsomal preparation was calculated.

[4] = Microsomal stability assay, RLM; assay type: in vitro ADME; conditions: male, Sprague Dawley, pooled rat liver microsomes, pH 7.4; 3 μM compound, 0.5 mg/ml rat liver microsomes, 37° C., 2 mM NADPH; read-out: RLM t1/2
Description: as §1, §2

[5] = system: Murine colon C26 cells; test: Tumor cell proliferation assay (ATP Lite), C26; assay type: cell-based; conditions: Mus musculus, 96 h, 4 days
Outline: (§3)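 Cells seeded at 1500/well (C26) or 2000/well (A375, MiaPaCa-2) grew overnight, then were exposed to serially diluted compounds (0.25% DMSO final) for 4 days in serum-containing DMEM or RPMI. Viability read by ATPlite luminescence; IC50 is the concentration giving 50% cell death.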

[6] = system: human melanoma cell MeI5; test: Tumor cell proliferation assay (ATP Lite), MeI5; assay type: cell-based; conditions: MeI5 cells
Description: Assay 2: Tumor Cell Proliferation Assays (ATP Lite)
Murine colon C26, human melanoma A375 and MeI5 or human pancreatic MiaPaCa-2 cells were plated in 96 well Corning white plates (1500 cells/well for C26, and 2000 cells/well for A375, and MiaPaCa-2) and cultured overnight at 37° C. in 5% CO2. Inhibitors were serially diluted in 100% DMSO and subsequently added to cells to reach a final concentration of 0.25% DMSO. The cells were incubated for 4 days in the presence of test compounds in cell growth media (DMEM with 10% fetal bovine serum, 2 mM glutamine for C26, and MiaPaCa-2, and RPMI with 10% fetal bovine serum, 2 mM glutamine for A375). Cell proliferation was quantitated using the ATP lite cell proliferation kit (Packard). Columns 4-6 show the concentration of compounds required to induce 50% cell death (IC50 in μM) of […]. With “+” meaning 3 μM<IC50≦10 μM and “++” IC50≦3 μM and “n.d.” means not determined. Few compounds were also tested on human melanoma cell MeI5.

[7] = system: human melanoma A375 cells; test: Tumor cell proliferation assay (ATP Lite), A375; assay type: cell-based; conditions: A-375, 96 h, 4 days
Outline: as §3

[8] = Microsomal stability assay, MLM; assay type: in vitro ADME; conditions: pH 7.4; 3 μM compound, 0.5 mg/ml mouse liver microsomes, 37° C., 2 mM NADPH; read-out: MLM t1/2
Description: as §1, §2

[9] = system: Tumors; conditions: patients; cited from earlier work
[10] = cited from earlier work
[11] = system: human pancreatic MiaPaCa-2 cells; test: Tumor cell proliferation assay (ATP Lite), MiaPaCa-2; assay type: cell-based; conditions: MIA PaCa-2, 96 h, 4 days
Outline: as §3

SMILES | pIC50 [2] | half-life at 3 µM [3] [h] | half-life at 3 µM [4] [h] | IC50 [5] [µM] | pIC50 [6] | IC50 [7] [µM] | half-life at 3 µM [8] [h] | IC50 [11] [µM] | Caco A-B [1] | Caco B-A [1] | efficacy in clinical phase II trials [9] | bioavailability [10]
CCONC(=O)c1ccncc1Nc1ccc(Br)cc1C [Example 4, 3-[(4-Bromo-2-methylphenyl)amino]-N-ethoxyisonicotinamide] | > 6.00 | 0.517 to 2 | 0.517 to 2 |  | 5.00 to 5.52 | ≤ 3 |  |  |  |  |  | 
Cc1cc(I)ccc1Nc1cnccc1C(=O)NOC[C@H](O)CO [Example 9, 3-[(2-methyl-4-iodophenyl)amino]-N-{[(2R)-2,3-dihydroxypropyl]oxy}-isonicotinamide] | > 6.00 | > 2 | > 2 | 3 to 10 |  | ≤ 3 | > 2 |  | + (a caco A-B and caco B-A value of 1-10) | ++ (a caco A-B and caco B-A value of 11-100) |  | 
CCONC(=O)c1ccncc1Nc1ccc(I)cc1C [Example 5, N-Ethoxy-3-[(4-iodo-2-methylphenyl)amino]isonicotinamide] | > 6.00 |  |  | 3 to 10 | ≥ 5.52 | ≤ 3 |  |  |  |  |  | 
O=C(NOCC1CC1)c1ccc(F)c(F)c1Nc1ccc(I)cc1Cl [PD-184352] |  |  |  |  |  |  |  |  |  |  | lacking efficacy | low
COc1ccccc1CCNC(=O)c1ccncc1Nc1ccc(I)cc1F [Example 27, 3-[(2-fluoro-4-iodophenyl)amino]-N-[2-(2-methoxyphenyl)-ethyl]isonicotinamide] | > 6.00 |  |  | 3 to 10 |  | 3 to 10 |  | 3 to 10 |  |  |  | 
CNC(=O)c1ccncc1Nc1ccc(I)cc1Cl [Example 22, 3-[(2-chloro-4-iodophenyl)amino]-N-methylisonicotinamide] | > 6.00 |  |  | ≤ 3 |  | ≤ 3 |  | ≤ 3 |  |  |  | 

Now from value to molecule, other results behind:

pIC50 [2] | half-life at 3 µM [3] [h] | half-life at 3 µM [4] [h] | IC50 [5] [µM] | pIC50 [6] | IC50 [7] [µM] | half-life at 3 µM [8] [h] | IC50 [11] [µM] | SMILES | Caco A-B [1] | Caco B-A [1] | efficacy in clinical phase II trials [9] | bioavailability [10]
> 6.00 | > 2 | 0.517 to 2 |  |  |  |  |  | CNCCNc1nnc(-c2ccncc2Nc2ccc(Br)cc2F)o1 [Example 128, N-{5-[3-(4-Bromo-2-fluoro-phenylamino)-pyridin-4-yl]-[1,3,4]oxadiazol-2-yl}-N′-methyl-ethane-1,2-diamine] | ++ (a caco A-B and caco B-A value of 11-100) | ++ (a caco A-B and caco B-A value of 11-100) |  | 
> 6.00 |  |  | 3 to 10 | ≥ 5.52 |  |  |  | Cc1cc(I)ccc1Nc1cnccc1C(=O)NOC[C@@H](O)CO [Example 124, N—((S)-2,3-Dihydroxy-propoxy)-3-(4-iodo-2-methyl-phenylamino)-isonicotinamide] |  |  |  | 
> 6.00 | > 2 | 0.517 to 2 |  |  |  | > 2 |  | C=CCNc1nnc(-c2ccncc2Nc2ccc(Br)cc2C)o1 [Example 129, [4-(5-Allylamino-[1,3,4]oxadiazol-2-yl)-pyridin-3-yl]-(4-bromo-2-methyl-phenyl)-amine] | ++ (a caco A-B and caco B-A value of 11-100) | ++ (a caco A-B and caco B-A value of 11-100) |  | 
 | > 2 | > 2 |  |  |  | 0.0167 to 0.5 |  | OCCNc1nnc(-c2ccncc2Nc2ccc(Br)cc2F)o1 [Example 127, 2-{5-[3-(4-Bromo-2-fluoro-phenylamino)-pyridin-4-yl]-[1,3,4]oxadiazol-2-ylamino}-ethanol] | ++ (a caco A-B and caco B-A value of 11-100) | ++ (a caco A-B and caco B-A value of 11-100) |  | 
> 6.00 | 0.517 to 2 | 0.0167 to 0.5 |  |  |  |  |  | Cc1cc(I)ccc1Nc1cnccc1C(=O)NS(C)(=O)=O [Example 123, N-[3-(4-Iodo-2-methyl-phenylamino)-pyridine-4-carbonyl]-methanesulfonamide] |  |  |  | 
> 6.00 |  |  | 3 to 10 |  | ≤ 3 |  | 3 to 10 | O=C(O)CONC(=O)c1ccncc1Nc1ccc(I)cc1F [Example 92, [({3-[(2-fluoro-4-iodophenyl)amino]isonicotinoyl}amino)oxy]acetic acid] |  |  |  | 
